In ChEMBL document CHEMBL5331124, “Degradation of Hexokinase 2 Blocks Glycolysis and Induces GSDME-Dependent Pyroptosis to Amplify Immunogenic Cell Death for Breast Cancer Therapy” (J Med Chem, 2023):
Calls of active or inactive are those of the source. The rule behind the calls is not given here.

Experiments:
4T1 [1] = test: Induction of pyroptosis in mouse 4T1 cells assessed as […] in cleaved caspase-3 level at 20 uM incubated for 36 hrs; format: functional, cell-based
4T1 [2] = test: Antitumor immunity against mouse 4T1 cells implanted in BALB/c mouse model assessed as increase in cleaved caspase-3 expression in tumor; format: functional, cell-based
MDA-MB-231 [3] = test: Antitumor activity against human MDA-MB-231 cells xenografted in BALB/c nude mouse assessed as increase in cleaved caspase-3 level at 50 mg/kg, ip measured after 28 days; format: functional, organism-based; settings: time 28.0 day
[4] = Toxicity in BALB/c mouse implanted with mouse 4T1 cells assessed as effect on mean corpuscular hemoglobin concentration at 50 mg/kg, ip measured after 25 days in presence of cisplatin by routine blood test; format: organism-based; settings: in vivo, 600 h, time 25 day
MDA-MB-231 [5] = test: Induction of pyroptosis in human MDA-MB-231 cells assessed as increase in N-terminal GSDME level at 20 uM incubated for 36 hrs by Western blot analysis; format: functional, cell-based
[6] = biological target: T1, Hexokinase-2 (Mus musculus) (UniProt O08528); test: Induction of HK2 degradation in mouse 4T1 cells at 20 uM measured upto 18 hrs by Western blot analysis; format: cell-based
T1 sequence (whole entry): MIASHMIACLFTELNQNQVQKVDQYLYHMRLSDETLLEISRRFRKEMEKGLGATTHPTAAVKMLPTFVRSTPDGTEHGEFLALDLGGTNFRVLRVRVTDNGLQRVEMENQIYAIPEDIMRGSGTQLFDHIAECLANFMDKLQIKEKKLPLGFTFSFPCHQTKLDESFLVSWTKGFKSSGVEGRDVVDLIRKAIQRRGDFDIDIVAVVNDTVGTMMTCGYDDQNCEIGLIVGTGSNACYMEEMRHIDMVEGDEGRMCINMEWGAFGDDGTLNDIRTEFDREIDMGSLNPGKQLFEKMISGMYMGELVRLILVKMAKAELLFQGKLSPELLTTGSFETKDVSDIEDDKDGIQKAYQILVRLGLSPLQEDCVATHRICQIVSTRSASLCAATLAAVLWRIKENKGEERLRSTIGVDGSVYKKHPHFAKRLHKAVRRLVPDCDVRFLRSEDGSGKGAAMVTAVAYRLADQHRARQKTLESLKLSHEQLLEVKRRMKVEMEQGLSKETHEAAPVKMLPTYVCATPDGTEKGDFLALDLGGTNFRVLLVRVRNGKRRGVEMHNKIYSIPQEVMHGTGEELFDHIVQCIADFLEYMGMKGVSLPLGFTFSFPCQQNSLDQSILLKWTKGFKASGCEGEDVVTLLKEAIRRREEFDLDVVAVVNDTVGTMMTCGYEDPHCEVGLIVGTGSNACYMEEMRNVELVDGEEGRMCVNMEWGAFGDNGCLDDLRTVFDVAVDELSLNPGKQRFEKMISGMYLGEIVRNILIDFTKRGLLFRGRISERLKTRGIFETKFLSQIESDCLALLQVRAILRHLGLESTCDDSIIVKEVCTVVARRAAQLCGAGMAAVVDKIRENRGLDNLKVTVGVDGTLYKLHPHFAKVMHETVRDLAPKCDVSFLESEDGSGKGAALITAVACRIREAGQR

PANC-1 = test: Antiproliferative activity against human PANC-1 cells assessed as cell growth inhibition measured for 72 hrs by MTT assay; format: functional, cell-based; settings: PANC-1, 72 h
MCF7 = test: Antiproliferative activity against human MCF7 cells assessed as cell growth inhibition measured for 72 hrs by MTT assay; format: functional, cell-based; settings: MCF7, 72 h
4T1 [7] = test: Induction of pyroptosis in mouse 4T1 cells assessed as viable cells at 20 uM incubated for 36 hrs by annexin V-FITC staining based flow cytometry analysis (reference value: 64 %); format: functional; settings: read-out: Activity
4T1 [8] = test: Induction of pyroptosis in mouse 4T1 cells assessed as late apoptotic cells at 20 uM incubated for 36 hrs by annexin V-FITC staining based flow cytometry analysis (Rvb =13.6 %); format: functional
4T1 [9] = test: Antitumor immunity against mouse 4T1 cells implanted in BALB/c mouse model assessed as increase in ATP release in cell supernatant at 20 uM measured for 36 hrs by ELISA analysis; format: functional, cell-based
4T1 [10] = test: Inhibition of colony formation in mouse 4T1 cells at 5 to 20 uM incubated for 48 hrs by giemsa staining based analysis; format: functional, cell-based; settings: dose 5-20 µM
MDA-MB-231 [11] = test: Antitumor activity against human MDA-MB-231 cells xenografted in BALB/c nude mouse assessed as reduction in tumor growth at 50 mg/kg, ip measured after 28 days; format: functional, organism-based; settings: time 28.0 day
[12] = biological target: T2, Hexokinase-2 (Homo sapiens) (UniProt P52789); test: Induction of HK2 degradation in human MDA-MB-231 cells upto 200 uM measured at 12 to 36 hrs; format: cell-based; settings: time 12-36 hrs
T2 sequence (whole entry): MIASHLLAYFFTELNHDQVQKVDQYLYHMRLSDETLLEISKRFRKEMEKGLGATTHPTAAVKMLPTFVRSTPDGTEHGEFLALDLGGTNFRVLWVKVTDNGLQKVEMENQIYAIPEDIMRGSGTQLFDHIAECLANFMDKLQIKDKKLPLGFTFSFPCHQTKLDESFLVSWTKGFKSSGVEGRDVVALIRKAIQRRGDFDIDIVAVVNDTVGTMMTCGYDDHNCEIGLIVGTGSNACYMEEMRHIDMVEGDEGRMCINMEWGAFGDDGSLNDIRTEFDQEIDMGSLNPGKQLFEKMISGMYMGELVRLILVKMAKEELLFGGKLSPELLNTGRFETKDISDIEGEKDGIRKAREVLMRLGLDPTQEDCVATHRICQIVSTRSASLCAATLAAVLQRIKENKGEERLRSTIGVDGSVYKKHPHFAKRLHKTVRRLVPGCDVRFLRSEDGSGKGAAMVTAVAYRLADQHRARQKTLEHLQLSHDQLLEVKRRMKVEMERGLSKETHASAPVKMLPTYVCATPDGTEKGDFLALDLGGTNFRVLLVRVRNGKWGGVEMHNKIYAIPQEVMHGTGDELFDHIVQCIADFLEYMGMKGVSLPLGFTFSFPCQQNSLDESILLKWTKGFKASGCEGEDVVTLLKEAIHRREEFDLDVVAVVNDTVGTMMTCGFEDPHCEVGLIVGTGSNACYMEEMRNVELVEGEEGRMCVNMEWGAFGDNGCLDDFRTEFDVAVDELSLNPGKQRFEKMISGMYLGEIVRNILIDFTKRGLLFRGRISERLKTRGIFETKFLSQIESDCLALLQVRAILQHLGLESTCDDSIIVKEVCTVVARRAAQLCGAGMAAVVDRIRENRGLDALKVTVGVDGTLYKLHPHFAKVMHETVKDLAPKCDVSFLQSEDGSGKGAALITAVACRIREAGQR

[13] = biological target: T2, Hexokinase-2 (Homo sapiens); test: Induction of HK2 degradation in human MDA-MB-231 cells measured for 36 hrs by confocal microscopic analysis; format: cell-based; settings: dose 2.0 µM
MDA-MB-231 [14] = test: Induction of pyroptosis in human MDA-MB-231 cells assessed as decrease in full length GSDME level at 20 uM incubated for 36 hrs by Western blot analysis; format: functional, cell-based
4T1 [15] = test: Antitumor activity against mouse 4T1 cells implanted in BALB/c mouse model assessed as nucleus damage at 50 mg/kg, ip measured after 25 days by TUNEL staining based analysis; format: functional, organism-based; settings: time 25.0 day

SMILES: O=C1CCC(N2C(=O)c3cccc(NCCCCNC(=O)c4nn(Cc5ccc(Cl)cc5Cl)c5ccccc45)c3C2=O)C(=O)N1 (configuration not stated)
- Activity (4T1 [1]): Active
- Activity (4T1 [2]): Active
- Activity (MDA-MB-231 [3]): Active
- Activity [4]: Non-Toxic
- Activity (MDA-MB-231 [5]): Active
- Activity [6]: Active
- IC50 (PANC-1): 31.5 µM
- IC50 (MCF7): 21.7 µM
- viability at 20 µM (4T1 [7]): 37.7%
- Activity (4T1 [8]): 43%
- Activity (4T1 [9]): Active
- inhibition (4T1 [10]): Active
- Activity (MDA-MB-231 [11]): Active
- Activity [12]: Active
- Activity [13]: Dose-Dependent Effect
- Activity (MDA-MB-231 [14]): Active
- Activity (4T1 [15]): Active
